Consider five molecules from paper PMC9017385, “Pharmacokinetics of Temsavir, the Active Moiety of the HIV-1 Attachment Inhibitor Prodrug, Fostemsavir, Coadministered with Cobicistat, Etravirine, Darunavir/Cobicistat, or Darunavir/Ritonavir with or without Etravirine in Healthy Participants” (Antimicrobial Agents and Chemotherapy, 2022).

One may read the AUC as concentration integrated over time. A lower AUC goes with low exposure. The term Cmax denotes the peak of the concentration-time curve.

The structures appear in SMILES notation. Where only a bound is given, the exact number is not on record here.

The subject of series [1] is breast cancer resistance protein (BCRP). The settings on record: not told; cited from earlier work.
The nature of series [2]: Study 206285: plasma PK of temsavir after FTR alone or with DRV/c or COBI. Format: in vivo, human. The procedure:
(§1) Eligible participants were admitted to the clinical facility on day −1 of each study. […] Physical examinations, measurements of vital signs, 12-lead ECGs, and clinical laboratory evaluations were performed, and participants were closely monitored for AEs and SAEs, throughout both studies.
(§2) (i) Bioanalytical methods and PK analysis. […] The lower limit of quantification and the upper limit of quantification for the analysis of TMR in both studies were 5 ng/mL and 5,000 ng/mL, respectively.
(§3) (ii) PK analysis. For both studies, individual participant PK parameter values were derived by noncompartmental methods with a validated PK analysis program using actual times. […] Cmax, Tmax, C12, and C24 were recorded directly from experimental observations and AUCtau was calculated by mixed log-linear trapezoidal summations.
(§4) SAS software version 9.2 (SAS Institute, Inc., Cary, North Carolina) was used for all statistical analyses, tabulations, and graphical presentations. For all treatment comparisons, a linear mixed-effect model was fitted to the log-transformed data with treatment as fixed effect and measurements within each participant as repeated measures, for use in the estimation of effects and the construction of CIs. Point estimates and 90% CIs for differences on the log scale were exponentiated to obtain estimates for GMRs and respective 90% CIs on the original scale. […] FTR administered alone was the reference treatment for both studies.

Series [3] in a line: Study 206281: plasma PK of temsavir after FTR alone or with DRV/r, ETR, or DRV/r plus ETR. Format: in vivo, human. How it is done:
(§5) Participants were randomly assigned to one of three cohorts per a computer-generated randomization scheme. • Cohort 1: Participants received FTR at 600 mg twice daily (BID) on days 1 to 4. […] After a 2-day washout (days 5 and 6), participants received ETR at 200 mg BID for 10 days (days 7 to 16) followed by FTR at 600 mg BID with ETR at 200 mg BID for 10 days (days 17 to 26). • Cohort 3: Participants received FTR at 600 mg BID on days 1 to 4.
as §1, §2, §3, §4

Series [4] can be described thus: QT prolongation at supratherapeutic FTR dose. Format: in vivo, human. The settings on record: supratherapeutic FTR 2,400 mg BID.
The test system of another series is P-glycoprotein (P-gp). Details: method as in earlier work. The settings on record: preclinical studies; cited from earlier work.
Series [5] can be described thus: Study 206285: safety, adverse events.
Description: Participants were sequentially enrolled to two cohorts. • Cohort 1: Participants received FTR at 600 mg BID on days 1 to 4. […] Participants then received FTR at 600 mg BID plus COBI at 150 mg QD on days 5 to 14 (Fig. 4B).
In another series the test system is HIV-1. Details: method as in PMID 32212519. Conditions: through 8 days of FTR functional monotherapy with failing regimen; HTE HIV-1-infected participants, randomized cohort; P < 0.0001; cited from earlier work.
The nature of series [6]: Study 206281: safety, adverse events. The series is classed as in vivo, human. Conditions: A fostemsavir 600 mg BID, B DRV/r 600/100 mg BID, C ETR 200 mg BID. How it is done:
as §5, §1

Series [7] can be described thus: Study 206281: plasma PK of DRV, RTV and ETR with or without FTR. The procedure: as §5, §1, §2, §3, §4
[8] abbreviates: FTR coadministered with COBI vs FTR alone, study 206285 cohort 2.
The mark [9] stands for this setting: FTR coadministered with DRV and COBI (DRV/c) vs FTR alone, study 206285 cohort 1.
[10] abbreviates: FTR coadministered with DRV/r and ETR vs FTR alone, study 206281 cohort 3.
Setting [11] is: FTR coadministered with DRV/r vs FTR alone, study 206281 cohort 1.
The mark [12] stands for this setting: FTR coadministered with ETR vs FTR alone, study 206281 cohort 2.
The mark [13] stands for this setting: FTR coadministered with ETR vs FTR alone, study 206281 cohort 2, listed as TMR.
Where [14] appears, read: FTR with DRV/r + ETR vs DRV/r plus ETR, study 206281 cohort 3.
Where [15] appears, read: DRV/r plus ETR with FTR vs DRV/r plus ETR, study 206281 cohort 3.
Where [16] appears, read: ETR with FTR vs ETR alone, study 206281 cohort 2.
[17] abbreviates: FTR plus DRV/r plus ETR vs DRV/r plus ETR, study 206281 cohort 3.
The mark [18] stands for this setting: FTR with DRV/r vs DRV/r, study 206281 cohort 1.

Take `COc1cnc(-n2cnc(C)n2)c2[nH]cc(C(=O)C(=O)N3CCN(C(=O)c4ccccc4)CC3)c12` [Temsavir]: the BCRP substrate entry in series [1] is on record as “substrate”. Also, in [2] (setting [8]), the “increase in TMR AUCtau” value was determined as 93%, the “increase in TMR C12 (Ctau in abstract)” value was determined as 136% and the “increase in TMR Cmax” value is reported as 71%. Further, in series [2] (setting [9]), the “increase in TMR AUCtau” value came to 97%, the “increase in TMR C12 (Ctau in abstract)” value is reported as 124% and the “increase in TMR Cmax” value is 79%. Besides, in [3] (setting [10]), the “increase in TMR AUCtau” value was 34%, the “increase in TMR C12 (Ctau in abstract)” value is listed as 33% and the “increase in TMR Cmax” value turned out to be 53%. In [3] (setting [11]), the “increase in TMR AUCtau” value stood at 63%, the “increase in TMR C12 (Ctau in abstract)” value came to 88% and the “increase in TMR Cmax” value came out at 52%. For the same molecule, the “decrease in TMR exposures” value in series [3] (FTR coadministered with ETR) was “approximately 50%”. In series [3] (setting [12]), the “decrease in TMR AUCtau” value was found to be 50%, the “decrease in TMR C12 (Ctau in abstract)” value is listed as ~50% and the “decrease in TMR Cmax” value is reported as ~50%. In series [3] (setting [13]), the “decrease in TMR C12 (Ctau in abstract)” value was found to be 52% and the “decrease in TMR Cmax” value came out at 48%. Also, the “fold by which exposures with TMR Cmax-driven QT prolongation exceed geometric mean TMR exposures of the current studies” value in series [4] was > 2 fold. Further, the “P-glycoprotein (P-gp) substrate” value with P-glycoprotein (P-gp) is given as “substrate”.

`COc1cnc(-n2cnc(C)n2)c2c1c(C(=O)C(=O)N1CCN(C(=O)c3ccccc3)CC1)cn2COP(=O)(O)O` [Fostemsavir]: in series [5] (study 206285 cohort 1), the Back pain is 1 (6.3) No. of patients (%), the Constipation was 0 No. of patients (%), the Cough is on record as 0 No. of patients (%) and the Headache is listed as 3 (18.8) No. of patients (%). Moreover, in [5] (study 206285 cohort 1), the Myalgia was 0 No. of patients (%), the Nausea is recorded as 1 (6.3) No. of patients (%), the Neutrophil count decreased is 0 No. of patients (%) and the Oropharyngeal pain was 2 (12.5) No. of patients (%). Besides, in series [5] (study 206285 cohort 1), the Pain was 0 No. of patients (%), the “Participants with AE” value is reported as 6 (37.5) No. of patients (%), the Vomiting is given as 1 (6.3) No. of patients (%) and the WBC decreased is 0 No. of patients (%). For the same molecule, in series [5] (study 206285 cohort 2), the Back pain was 1 (6.3) No. of patients (%), the Constipation was 0 No. of patients (%), the Cough is listed as 0 No. of patients (%) and the Headache is recorded as 1 (6.3) No. of patients (%). For the same molecule, in [5] (study 206285 cohort 2), the Myalgia is given as 0 No. of patients (%), the Nausea is listed as 0 No. of patients (%), the Neutrophil count decreased is given as 0 No. of patients (%) and the Oropharyngeal pain is listed as 0 No. of patients (%). Moreover, in series [5] (study 206285 cohort 2), the Pain is recorded as 0 No. of patients (%), the “Participants with AE” value was 3 (18.8) No. of patients (%), the Vomiting is given as 0 No. of patients (%) and the WBC decreased was 0 No. of patients (%). Also, the “adjusted mean decline in HIV-1 RNA” value in the series on HIV-1 is 0.8 log10 copies/mL. In series [6], the Abdominal distension was 0 No. of patients (%), the Aphthous stomatitis is 0 No. of patients (%), the Back pain was 0 No. of patients (%) and the Diarrhea is on record as 0 No. of patients (%). Moreover, in series [6], the Dizziness is 0 No. of patients (%), the Drug eruption was 0 No. of patients (%), the Dry mouth is recorded as 1 (2.2) No. of patients (%) and the Fatigue is recorded as 0 No. of patients (%). In addition, in series [6], the Headache is 1 (2.2) No. of patients (%), the Muscle spasms is on record as 0 No. of patients (%), the Nausea was 1 (2.2) No. of patients (%) and the Pruritus was 1 (2.2) No. of patients (%). Moreover, in series [6], the Pruritus generalized was 0 No. of patients (%), the Somnolence was 0 No. of patients (%) and the “Subjects with any AE” value is recorded as 6 (13.0) No. of patients (%).

Turning to `CC(C)CN(C[C@@H](O)[C@H](Cc1ccccc1)NC(=O)O[C@H]1CO[C@H]2OCC[C@H]21)S(=O)(=O)c1ccc(N)cc1` [DRV], in series [7] (setting [14]), the “decrease in DRV AUCtau” value was determined as 6%, the “decrease in DRV C12” value amounted to 12% and the “decrease in DRV Cmax” value was found to be 5%.

As to `Cc1cc(C#N)cc(C)c1Oc1nc(Nc2ccc(C#N)cc2)nc(N)c1Br` [ETR, reference compound], in series [7] (setting [15]), the “increase in ETR AUCtau” value worked out at 28%, the “increase in ETR C12” value is on record as 28% and the “increase in ETR Cmax” value amounted to 18%. For the same molecule, in [7] (setting [16]), the “increase in ETR AUCtau” value was 11%, the “increase in ETR C12” value is 14% and the “increase in ETR Cmax” value was determined as 11%. Moreover, in [7] (human, plasma, oral, 200 mg), the AUC was 7820 ng·h/mL, the concentration peaked (Cmax) at 846 ng/mL and the concentration at 12 h stood at 457 ng/mL. Further, in series [6], the Abdominal distension is reported as 0 No. of patients (%), the Aphthous stomatitis was 0 No. of patients (%), the Back pain is listed as 0 No. of patients (%) and the Diarrhea is given as 0 No. of patients (%). Also, in [6], the Dizziness was 0 No. of patients (%), the Drug eruption was 2 (14.3) No. of patients (%), the Dry mouth is 0 No. of patients (%) and the Fatigue was 0 No. of patients (%). In series [6], the Headache is 0 No. of patients (%), the Muscle spasms was 0 No. of patients (%), the Nausea is reported as 0 No. of patients (%) and the Pruritus is 0 No. of patients (%). In addition, in series [6], the Pruritus generalized is listed as 1 (7.1) No. of patients (%), the Somnolence was 0 No. of patients (%) and the “Subjects with any AE” value is reported as 4 (28.6) No. of patients (%).

As to `CC(C)c1nc(CN(C)C(=O)N[C@H](C(=O)N[C@@H](Cc2ccccc2)C[C@H](O)[C@H](Cc2ccccc2)NC(=O)OCc2cncs2)C(C)C)cs1` [RTV], in series [7] (setting [17]), the “increase in RTV AUCtau” value came to 9%, the “increase in RTV C12” value is listed as 7% and the “increase in RTV Cmax” value stood at 14%. Moreover, in series [7] (setting [18]), the “change in RTV Cmax” value is “no meaningful change”, the “increase in RTV AUCtau” value is recorded as 15% and the “increase in RTV C12” value amounted to 19%.
